Results published in US20030050212A1, “Constituent of washing aid having anti-bacterial or the like component” (priority 2001, published 2003).

Experiments:
bacteria = experiment: anti-bacterial effect of Ag ions; conditions: Ag ions at 1 ppm concentration
Text: Anti-bacterial material, for example silver ions, of high concentration dispersions towards the low concentration area. By means of a physical stirring and agitating, the anti-bacterial is adsorbed onto the fabric under cleaning.

oral test LD 50 = assay type: in vivo
Text: (§1) In actual application, 1 g of MFS 350 anti-bacterial material into 1 kg of raw material can provide a satisfactory result. Of course, the concentration can be adjusted in accordance with the requirements. In experiment, Ag ions oral test LD 50 is larger than 5000 mg1 kg, lethal test LD 50 is larger than 2000 mg1 Kg, which is relatively safe. […] The preferable metallic powder is powdery particle of nanometer in size having an excellent surface ratio. That is, under the same physical condition, a reaction surface is larger; preferably the physical size is 200 nanometer, preferably in the range of 50 to 100 nanometers.

lethal test LD 50 = conditions: in vivo
Text: as §1

[Ag+] [Ag ions]
anti-bacterial effect (bacteria): possess anti-bacterial effect
oral test LD 50 (oral test LD 50): > 5000 mg1 kg
lethal test LD 50 (lethal test LD 50): > 2000 mg1 Kg
